Columns and labels:
[1] = tested on: obesity/diabetes mice (db/db mice); experiment: Anti-obesity effect in obesity/diabetes mouse model; format: in vivo; settings: for body weight / intramuscular triglyceride accumulation / white adipose tissue weight: 14th day, db/db mice
Experimental: To investigate the anti-obesity effect of macelignan, seven mice of 10 week-aged obesity/diabetes mice (db/db mice) were used per test group. To the test groups, macelignan suspended in […] carboxymethyl cellulose was orally administered in an administration dose of 5 mg/kg (body weight), 10 mg/kg (body weight) and 25 mg/kg (body weight), once per day at a predetermined time, for 14 days. As a control, 0.25% carboxymethyl cellulose was orally administered alone to normal mice in the same dose as administered to the test group. As another control, 0.25% carboxymethyl cellulose was orally administered alone to obesity/diabetes mice in the same dose as administered to the test group. As still another control, 10 mg/kg (body weight) of troglitazone was orally administered. From 6 days before the administration, diet intake and body weight of each obesity/diabetes mouse were measured once per three days. Additionally, on the 14th day after the oral administration, white adipose tissue weight and the amount of triglyceride accumulated in muscle cell were measured (Triglyceride measuring kit, Wako, No. 432-40201, Japan).

[2] = target: T1, human PPARα (Homo sapiens, UniProt Q07869); experiment: PPARα activation, PPRE-controlled luciferase reporter in transfected COS-7 cells; format: cell-based; settings: 24 hours
T1 construct: expressed in transfected cells; host or cells: COS-7 monkey kidney cells (ATCC CRL-1651)
T1 sequence (Q07869 192-468 limits assumed): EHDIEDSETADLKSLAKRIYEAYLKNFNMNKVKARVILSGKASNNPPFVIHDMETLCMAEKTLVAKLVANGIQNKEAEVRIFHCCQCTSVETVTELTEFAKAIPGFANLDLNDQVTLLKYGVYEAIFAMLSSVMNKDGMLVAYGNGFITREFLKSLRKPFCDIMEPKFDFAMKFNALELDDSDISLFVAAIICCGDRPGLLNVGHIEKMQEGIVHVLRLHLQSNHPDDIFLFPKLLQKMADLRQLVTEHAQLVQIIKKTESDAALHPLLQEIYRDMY
Experimental: To investigate whether macelignan acts as a ligand of PPAR or not, it was tested according to known method (Cell, 68: 879-887, 1992; J. Biol. Chem., 272: 25252-25259, 1997) using a plasmid expressing PPAR and a vector having PPRE-controlled luciferase genes.
Activation of luciferase expression was measured by transfecting COS-7 monkey kidney cells (ATCC CRL-1651) with the PPARα plasmid and pFR-luciferase vector (Stratagene, USA), and then by treating the transfected cells with macelignan isolated from Example 1 for 24 hours. The PPARα plasmid was obtained by isolating polynucleotide encoding the amino acid sequence of amino acids […] (i.e. PPARα ligand-bound domain of the total amino acid sequence of human PPARα (Genbank Acession No. S74349)) with the primers of SEQ ID NO: 1 ([…]) and SEQ ID NO: 2 (TGGGGTACCTGGCTGAT) by RT-PCR. Then, the polynucleotide was cloned between the restriction enzyme sites of BamHI and KpnI of pFA vector (Stratagene, USA). Herein, mRNA used as the template in RT-PCR was obtained by separating the total RNA in cultured Hep G2 (ATCC HB-8065) human liver cells by using TRIZOL (Invitrogen, USA). RT-PCR was performed by synthesizing cDNA using reverse transcriptase at 42° C. for 60 minutes, and 30 cycles of 1 minute at 95° C., 30 seconds at 54° C. and 2 minutes at 72° C. using Taq polymerase. At this time, the test groups treated with different concentrations (1, 5, 10 and 25 μM) of macelignan according to the present invention were compared to the control treated with 0.01% DMSO, and to the groups treated with different concentrations (1, 5, 10 and 25 μM) of Wy-14643 (Sigma, USA), a compound known as a PPARα ligand.

[3] = tested on: target genes of PPARγ (LPL, PEPCK); experiment: Expression of target genes of PPARγ in 3T3-L1 pre-adipocytes (RT-PCR); format: cell-based, mouse; settings: 3T3-L1 cells, 24 hours, then MDI medium two days, vs control
Experimental: 3T3-L1 mouse pre-adipocytes (ATCC CL-173) cultured in a DMEM medium containing 10% FBS were pipetted into a multi-well plate in a cell count of 1×10^6 cells per well, and then further cultured for 5 hours. To the medium of the cultured cells, 10 μM of macelignan was added and then left for 24 hours. Adipocyte differentiation was induced by substituting the medium of the cultured cells with MDI (0.5 mM 3-isobutyl-1-methylxanthine, 0.5 uM dexamethasone, 10 ug/ml insulin) medium (Am. J. Physiol. Cell Physiol., 280: C807-C813, 2001). Cells were collected two days after the substitution of MDI medium, and the total RNA was isolated by using TRIZOL (Invitrogen, USA). The total RNA isolated as described above was determined, and cDNA was synthesized by using reverse transcriptase at 42° C. for 20 minutes with same amount of RNA. The cDNA was subjected to RT-PCR by repeating 30 cycles of 95° C./1 minute, 56° C./30 seconds and 72° C./2 minutes with the following primers and Taq polymerase: primers for LPL amplification (SEQ ID NO: 13([…]) and SEQ ID NO: 14([…])), and primers for PEPCK amplification (SEQ ID NO: 15(CAGGCGGCTGAA GAAGTATGA) and SEQ ID NO: 16([…])).

## COc1cc(C[C@H](C)[C@H](C)Cc2ccc3c(c2)OCO3)ccc1O (single isomer, unassigned) [macelignan]
[1]; 5 mg/kg oral
  body weight: 46.32 ± 2.31 g
  intramuscular triglyceride accumulation: 24.7 ± 4.74 mg
  white adipose tissue weight: 4230 ± 284 mg
[1]; 10 mg/kg oral
  body weight: 43.8 ± 2.94 g
  intramuscular triglyceride accumulation: 22.8 ± 5.76 mg
  white adipose tissue weight: 3900 ± 279 mg
[1]; 25 mg/kg oral
  body weight: 41.80 ± 1.56 g
  intramuscular triglyceride accumulation: 20.2 ± 3.82 mg
  white adipose tissue weight: 2690 ± 154 mg
[1]; 5, 10 and 25 mg/kg oral, 14 days, test groups vs controls
  diet intake: no significant difference
[2]; 25 μM, control 0.01% DMSO
  luciferase activity higher than the control (PPARα): about 14 times
[2]; 1, 5, 10 and 25 μM, p<0.01 vs control
  PPARα activity: increased PPARα activity in a concentration-dependent manner
[3]
  mRNA expression of LPL and PEPCK: significantly increased
